The text below walks through data of US6770649B2, “1-[1-(hetero)aryl-1-perhydroxyalkylmethyl]-piperazine compounds, process for their preparation and pharmaceutical compositions containing them” (Solvay Pharmaceuticals GmbH, priority 2001, dated 2004).

Assay [1] concerns the target T1, human NK-2 receptor (Homo sapiens, UniProt P21452).
T1 construct: expressed in transfected cells; host or cells: CHO cells (membrane preparation)
T1 sequence (P21452 1-398): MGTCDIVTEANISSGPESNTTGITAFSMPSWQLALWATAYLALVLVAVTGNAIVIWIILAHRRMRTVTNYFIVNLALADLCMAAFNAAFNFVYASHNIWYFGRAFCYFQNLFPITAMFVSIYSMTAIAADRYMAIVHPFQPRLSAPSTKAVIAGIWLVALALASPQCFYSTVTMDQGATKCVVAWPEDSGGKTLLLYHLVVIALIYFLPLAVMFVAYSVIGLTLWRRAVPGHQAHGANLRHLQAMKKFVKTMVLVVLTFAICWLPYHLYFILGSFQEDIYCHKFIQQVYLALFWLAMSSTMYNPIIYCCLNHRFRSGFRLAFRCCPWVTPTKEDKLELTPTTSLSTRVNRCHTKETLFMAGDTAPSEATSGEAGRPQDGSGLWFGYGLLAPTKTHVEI
In words: Binding power of the test substances to NK-2 receptors in vitro ([3H]-SR 48968 displacement, CHO cell membranes). The conditions noted are these: displacement of [3H]-SR 48968, 90 min incubation, average of at least three measurements, 10^-6 to 10^-10 mol/l, read-out: pKi, affinity to human NK-2 receptors (converted). The protocol: 1. Determination of the Binding Power of the Test Substances to NK-2 Receptors in vitro
The affinity of the test substances to human NK-2 receptors was measured in vitro. The ability of the test substances to displace the selective NK-2 receptor antagonist SR 48968 (=saredutant) used as reference ligand from its corresponding bond was determined.
The receptor binding studies were carried out with radioactively marked [^3H]-SR 48968 (from Amersham) as ligand. For the binding test, different samples of a membrane preparation of CHO cells (=[…]), which express the human NK-2 receptor (for preparation, see N. P. Gerard et al., Journal of Biological Chemistry 265/33 (1990) 20455-20462), were incubated for 90 minutes (=min.) with a solution of the marked ligand, with the incubation mixtures containing no test substance or additions of different concentrations of test substance. Then in each case the membrane-bound ligands in the samples were separated from free ligands by filtration. The fraction remaining in the filter was washed several times with buffer solution, before its radioactivity was measured using a liquid scintillation counter. That concentration which effects half-maximum displacement of the bound reference ligand was determined as IC50 of the respective test substance. The inhibition constant (Ki value) of the test substance was calculated from the respective IC50 value, and was stated as the negative logarithmised value thereof (pKi).
For the compounds of Examples 1 to 39, the affinity to human NK-2 receptors was determined in each case by at least three measurements of the test substances in concentration series of 10^−6 to 10^−10 mol/l. If several measurements were performed, the average thereof was listed each time.
For orientation: In a radioligand displacement assay an active substance lowers the binding of a labelled ligand.

The target of assay [2] is T2, NK-2 receptors (Cavia porcellus, UniProt Q64077).
T2 construct: the NK-2 receptors present in the gall-bladder preparations; from tissue; host or cells: Pirbright-White guinea pig: isolated gall-bladder (A2); anaesthetised whole animal (A3)
T2 sequence (Q64077 1-402): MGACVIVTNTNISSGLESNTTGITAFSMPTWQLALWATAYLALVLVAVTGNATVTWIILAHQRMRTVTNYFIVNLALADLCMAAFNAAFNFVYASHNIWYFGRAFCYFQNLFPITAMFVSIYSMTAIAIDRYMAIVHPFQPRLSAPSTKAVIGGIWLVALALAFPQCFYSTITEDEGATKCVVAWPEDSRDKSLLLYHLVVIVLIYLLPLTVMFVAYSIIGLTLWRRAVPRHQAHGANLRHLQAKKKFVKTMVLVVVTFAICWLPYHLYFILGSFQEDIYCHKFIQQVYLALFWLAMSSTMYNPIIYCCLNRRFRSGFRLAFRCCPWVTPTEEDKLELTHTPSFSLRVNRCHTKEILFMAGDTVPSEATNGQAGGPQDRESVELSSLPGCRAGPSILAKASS
Description: Functional NK-2 antagonism on isolated guinea pig gall-bladder preparations (NKA-induced contraction). It counts as cell-based. The conditions noted are these: inhibition of contraction caused by NKA 0.1 μmol/l; two hours' incubation; Pirbright-White guinea pig gall-bladder. The protocol:
2. Determination of the Functional Antagonism of the Test Substances on Isolated Guinea Pig Tissue in vitro
The NK-2 receptor-antagonising action of the test substances was determined on isolated gall-bladder preparations from Pirbright-White guinea pigs, held in an oxygen-saturated nutrient solution. To this end, the preparations were fastened on one hand in the nutrient solution to organ holders and on the other hand on a force meter by a thread.
In this test the NK-2 receptors present in the gall-bladder preparations were stimulated with the natural NK-2 receptor agonist neurokinin A (=NKA; 0.1 μmol/l) and the contractions of the preparations caused thereby were measured as contractility in mN (=preliminary value) measured. Then NKA was rinsed out of the preparations with NKA-free solution and the test substances were added in a concentration of 10^−7 mol/l. After two hours' incubation of the preparations with the test substances, the contractions of the preparations then still caused by renewed NKA addition were again measured and the results were given as percentages, relative to the contractions initially measured, caused solely by NKA addition. The concentration of the test substances was increased iteratively in the subsequent experiments as a function of the result in logarithmic whole or half steps, until at least one concentration above or below 50% inhibition of contraction was determined (up to at most 10^−5 mol/l). For each concentration, the average value of inhibition of contraction was calculated from 2 to 4 preparations. In each case, the concentration of half-maximum inhibition (IC50) per test substance was calculated as characteristic variable. In each case the logarithmised value of the IC50 per test substance is given as pIC50 in [mol/l].

The target in assay [3] is T2, NK-2 receptors. In words: NK-2-receptor-antagonistic effectiveness in vivo in anaesthetised guinea pigs (NKA test stimulus). Further details: species or system guinea pig. The conditions noted are these: for NK-2-receptor-antagonistic activity of colon motility, late drop in blood pressure and respiratory resistance (in words): cumulative administration i.v., antagonism detected 1 min. after administration had ended; for ED50: guinea pig. From the text:
3. Determination of the NK-2-receptor-antagonistic Effectiveness of the Test Substances in vivo
The NK-2- and NK-1-antagonistic activities of the test substances were investigated in anaesthetised guinea pigs in each case after intravenous (=i.v.) and oral (=p.o.) administration in vivio. With the present test model it is possible to detect both NK-2-antagonistic effects in three different organ systems (respiratory tracts, colon and circulation) and NK-1-antagonistic effects (rapid drop in blood pressure) in an animal simultaneously.
Pirbright-White guinea pigs of a body weight of 500-700 g were anaesthetised with ketamine/xylazine (67/13 mg/kg subcutaneously, initial dose, further doses administered as required). The animals were provided with an intravenous catheter in order to administer the substance and an intra-arterial catheter to measure the blood pressure. The animals were artificially ventilated via a tracheal cannula and the respiratory pressure was recorded by means of a pressure transducer. A balloon was introduced into the distal colon of the animals for manometric recording of colon motility by means of a pressure transducer. Blood pressure, heart rate, respiratory pressure and colonic pressure were measured continuously for each animal and plotted on a recorder and by means of a digital data-processing system. Neurokinin A (=NKA; 200 pmol/animal) was administered i.v. as a bolus as a test stimulus to stimulate the NK-1- and the NK-2 receptors. An addition of NKA of this type results in a great increase in respiratory pressure (bronchoconstriction) and colonic pressure, and in a biphasic drop in blood pressure. The first phase of hypotension (=phase of maximum hypotension within the first minute after administration of NKA) is mediated via NK-1 receptors, since they can be blocked completely by specific NK-1 receptor antagonists. The second phase of delayed hypotension (=phase of maximum hypotension after 2-5 min.) on the other hand is mediated via NK-2 receptors, since they can be blocked by specific NK-2 receptor antagonists. The doses of the test substances are given as ED50 values which each result in a response to the NKA test stimulus which is reduced to 50% of the initial value, as characteristic variables for the individual measurement parameters bronchoconstriction, colonic pressure and change in blood pressure mediated by NK-1 or NK-2.
The antagonistic effects of the test substances were first investigated in cumulative form, the time of the NKA test stimulus being 1 min. after the administration of the respective doses of the test substances had ended. These ED50 values obtained from cumulative dose effect curves are plotted in Table 2 below. In order additionally to detect the variation over time of the antagonistic effects of the test substances, the action of the NKA test stimulus was determined at different times (1, 30, 60, 90, 120, 150 and 180 min.) after administration of the test substances.

[4] abbreviates: iv, cumulative dosing, NKA stimulus 1 min. after administration, NK-2-mediated late drop in blood pressure, read-out: ED50 Blood pressure, i.v. after 1 min. (cumulative).
The mark [5] stands for this setting: iv, cumulative dosing, NKA stimulus 1 min. after administration, respiratory resistance (bronchoconstriction), read-out: ED50 Respiratory resistance, i.v. after 1 min. (cumulative).
[6] abbreviates: iv, cumulative dosing, NKA stimulus (200 pmol/animal i.v.) 1 min. after administration, colonic pressure, read-out: ED50 Colonic pressure, i.v. after 1 min. (cumulative).
Setting [7] is: iv, from AUC of antagonistic effect over 120 min after administration, colonic pressure, read-out: ED50 Colonic pressure, i.v. AUC over 120 min.
The mark [8] stands for this setting: iv, from AUC over 120 min after administration, NK-2-mediated drop in blood pressure, read-out: ED50 Blood pressure, i.v. AUC over 120 min.
The mark [9] stands for this setting: iv, from AUC over 120 min after administration, respiratory resistance, read-out: ED50 Respiratory resistance, i.v. AUC over 120 min.
Where [10] appears, read: po, from AUC over 180 min after administration, NK-2-mediated drop in blood pressure, read-out: ED50 Blood pressure, p.o. AUC over 180 min.
Setting [11] is: po, from AUC over 180 min after administration, colonic pressure, read-out: ED50 Colonic pressure, p.o. AUC over 180 min.
Setting [12] is: po, from AUC over 180 min after administration, respiratory resistance, read-out: ED50 Respiratory resistance, p.o. AUC over 180 min.

Each structure is given as a SMILES string. Read-outs that look alike come from different tables or passages of the source.

The IC50 is the concentration that gives 50% inhibition. A low value points to inhibition by little substance. Turning to `CN(CC(CCN1CCN(C(c2ccsc2)[C@H](O)[C@@H](O)[C@H](O)CO)CC1)c1ccc(Cl)c(Cl)c1)C(=O)c1ccccc1` (mixture of isomers) [Example 7], in assay [1], the Ki was at most 10 nM. This compound had an IC50 in assay [2] of 0.251 nM.

Consider `CN(CC(CCN1CCN(C(c2ccsc2)[C@@H](O)[C@@H](O)[C@H](O)CO)CC1)c1ccc(Cl)c(Cl)c1)C(=O)c1ccccc1` (mixture of isomers) [Example 9], for which, in assay [1], the Ki was at most 10 nM. In assay [2], this compound gave an IC50 of 0.501 nM.

Turning to `CN(CC(CCN1CCN(C(c2ccsc2)[C@@H](O)[C@H](O)[C@H](O)CO)CC1)c1ccc(Cl)c(Cl)c1)C(=O)c1ccccc1` (mixture of isomers) [Example 17], the Ki in assay [1] was at most 10 nM. Further, the midpoint of inhibition in assay [2], the IC50, lay at 0.2 nM.

The ED50 is the midpoint of the dose-response relation. With `CN(C[C@@H](CCN1CCN(C(c2ccsc2)[C@H](O)CO)CC1)c1ccc(Cl)c(Cl)c1)C(=O)c1ccccc1` (stereo partly shown) [Example 5], in assay [1], the Ki was at most 1 nM. Besides, the “NK-2-receptor-antagonistic activity of colon motility, late drop in blood pressure and respiratory resistance (in words)” value in assay [3] is listed as “marked NK-2-receptor-antagonistic activity”. Besides, the ED50 in assay [3] (setting [4]) is 0.13 µmol/kg; in assay [3] (setting [5]), 0.106 µmol/kg; in assay [3] (setting [6]), 0.041 µmol/kg; in assay [3] (setting [7]), 0.014 µmol/kg; in assay [3] (setting [8]) it was 0.004 µmol/kg; in assay [3] (setting [9]), 0.008 µmol/kg. The ED50 is 7.6 µmol/kg in assay [3] (setting [10]), 3.4 µmol/kg in assay [3] (setting [11]) and 2.7 µmol/kg in assay [3] (setting [12]).

Turning to `CN(C[C@@H](CCN1CCN(C(c2ccsc2)[C@H](O)[C@H](O)CO)CC1)c1ccc(Cl)c(Cl)c1)C(=O)c1ccccc1` (stereo partly drawn) [Example 15, N-((2S)-2-(3,4-dichlorophenyl)-4-{4[(2S,3R)-2,3,4-trihydroxy-1-(3-thienyl)butyl]-1-piperazinyl}-butyl)-N-methylbenzamide], the Ki in assay [1] was at most 10 nM. Besides, in assay [3], the “NK-2-receptor-antagonistic activity of colon motility, late drop in blood pressure and respiratory resistance (in words)” value is “marked NK-2-receptor-antagonistic activity”. For the same compound, the median effective dose (ED50) in assay [3] (setting [4]) was found to be 0.114 µmol/kg; in assay [3] (setting [5]), 0.079 µmol/kg; in assay [3] (setting [6]) it was 0.041 µmol/kg; in assay [3] (setting [7]), 0.009 µmol/kg; in assay [3] (setting [8]), 0.047 µmol/kg; in assay [3] (setting [9]), 0.042 µmol/kg. Besides, the values for the ED50 in assay [3] (setting [10]), in assay [3] (setting [11]) and in assay [3] (setting [12]) were 8.6 µmol/kg, 4.5 µmol/kg and 3.2 µmol/kg, respectively.
